In patent publication US20250049708A1, “A TOPICAL GEL FORMULATION FOR SKIN AND MOUTH DISORDERS AND A PROCESS OF PREPARATION THEREOF” (priority 2021, published 2025):

Tests used:
Type in all cases: in vivo, male BALB/c mice
[1] = tested on: TNF-α; assay: tongue and serum TNF-α levels in mice with oral mucositis (mouse TNF-α ELISA kit); conditions: 5-FU + scratch mice
Procedure: (§1) The in vivo pharmacological assessment of anti-mucositis activity of the topical or oromucosal gel formulation in male BALB/c mice was performed. The study protocol involves six BALB/c mice namely vehicle, 5-Fluorouracil (FU) group, 5 FU-group+Scratching, FU-group+Scratching, FU-group+Scratching+100 ug gel and FU-group+Scratching+30 ug respectively were maintained under specific pathogen-free conditions. The mice were 6-8 weeks of age and weighed 25-30 g. All animal experimental procedures were performed in accordance with the Institutional Animal Ethics Committee (IAEC) guidelines along with approval from IAEC.
(§2) The anti-mucositis study protocol involves mice that are intraperitoneally administered with 5-FU at 100 mg/kg on day 0. The scratching group of mice was anesthetized with isoflurane and an area of 0.5 cm^2 of the tongue was scratched using the tip of an 18-gauge needle at an equal force and depth on days 7 and 8. […]
(§3) The levels of biomarkers such as IL-6 and TNF-α were analyzed in mice upon treatment with topical or oromucosal gel formulation. The concentrations of these biomarkers in serum and tongue were analyzed using standard ELISA kits.
The tongue and serum concentrations of TNF-α were analyzed in mice with oral mucositis upon treatment with topical or oromucosal gel formulation. The concentrations of TNF-α in tongue and serum were analyzed using mouse TNF-α ELISA kit.

[2] = body weights of mice with oral mucositis over 15 days; conditions: 5-FU + scratch mice; period of 15 days
Procedure: as §1
The anti-mucositis study protocol involves mice that are intraperitoneally administered with 5-FU at 100 mg/kg on day 0. The scratching group of mice was anesthetized with isoflurane and an area of 0.5 cm^2 of the tongue was scratched using the tip of an 18-gauge needle at an equal force and depth on days 7 and 8. The scratching was blinded to the treatment groups. Dexamethasone was administered orally at 1 mg/kg/day from on day 7.
The body weights of mice with oral mucositis upon treatment with topical or oromucosal gel formulation were analyzed for a period of 15 days.

[3] = tested on: oral mucositis; assay: anti-mucositis activity (mucositis score) in mice with 5-FU + tongue scratching induced oral mucositis; conditions: score 0-5
Procedure: as §1
The activity of misoprostol of the topical or oromucosal gel formulation was analyzed for anti-mucositis in mice. The anti-mucositis activity is analyzed based on the mucositis score. The scoring parameters for anti-mucositis activity include erythema, vasodilation, erosion, bleeding, fibrosis, and ulcers.
A scoring method is adopted for oral mucositis induced by radiation and chemotherapy. The scoring evaluates the relationship between dosage, delivery method and complications. The Scoring systems are useful in assessing the impact of therapy on patient. […]
FIG. 5 illustrates the effect of topical or oromucosal gel formulation in mice with oral mucositis. The mucositis score was evaluated for 6 groups of mice (G1-G6) over a period of 15 days.

[4] = tested on: IL-6; assay: tongue and serum IL-6 levels in mice with oral mucositis (mouse IL-6 ELISA kit); conditions: 5-FU + scratch mice
Procedure: as §1, §2, §3
The tongue and serum concentrations of IL-6 were analyzed in mice with oral mucositis upon treatment with topical or oromucosal gel formulation. The concentrations of IL-6 in tongue and serum were analyzed using mouse IL-6 ELISA kit.

C[C@@H]1C[C@H]2[C@@H]3CCC4=CC(=O)C=C[C@]4(C)[C@@]3(F)[C@@H](O)C[C@]2(C)[C@@]1(O)C(=O)CO [Dexamethasone]
serum TNF-α mean concentration ([1]; serum): 3.32 | tongue TNF-α mean concentration ([1]; tongue): 20.07 | body weight course [2]: decrease in weight for 8 days and gradually increases over the remaining 7 days | mucositis score reached in the increase phase ([3]; 5-FU 100 mg/kg i.p. day 0 + tongue scratch days 7 and 8, increase till day 8): 3 | mucositis score after decrease over the remaining days ([3]; 5-FU + scratch, end of 15 day period): 1 | serum IL-6 mean concentration ([4]; serum): 6.91 | tongue IL-6 mean concentration ([4]; tongue): 44.20
